For orientation: Ki means the dissociation constant of the complex between target and ligand, obtained from inhibition or displacement. Usually half-life stands for the time needed for the level to fall by half in the phase considered.

This is an account of results in ChEMBL document CHEMBL1139660, “Imidazo[1,2-b][1,2,4]triazines as alpha2/alpha3 subtype selective GABA A agonists for the treatment of anxiety” (Bioorg Med Chem Lett, 2006).

Data set [1] deals with T1, GABA-A receptor; alpha-5/beta-3/gamma-2 (Homo sapiens, UniProt P18507+P28472+P31644).
T1 sequence (P18507 whole entry): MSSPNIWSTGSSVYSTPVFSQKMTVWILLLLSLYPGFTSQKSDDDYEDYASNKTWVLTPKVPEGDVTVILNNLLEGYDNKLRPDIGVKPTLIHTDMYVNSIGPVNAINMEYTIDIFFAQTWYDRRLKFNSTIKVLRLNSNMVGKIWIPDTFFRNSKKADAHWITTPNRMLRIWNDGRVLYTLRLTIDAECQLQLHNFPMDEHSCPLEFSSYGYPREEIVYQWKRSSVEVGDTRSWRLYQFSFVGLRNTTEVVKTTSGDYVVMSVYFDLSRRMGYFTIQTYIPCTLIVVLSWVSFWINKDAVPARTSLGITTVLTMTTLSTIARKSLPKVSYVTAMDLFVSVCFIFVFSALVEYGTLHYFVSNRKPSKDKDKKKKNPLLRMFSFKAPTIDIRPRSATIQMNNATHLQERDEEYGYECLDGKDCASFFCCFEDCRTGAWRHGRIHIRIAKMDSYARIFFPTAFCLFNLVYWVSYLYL
T1 sequence (P28472 whole entry): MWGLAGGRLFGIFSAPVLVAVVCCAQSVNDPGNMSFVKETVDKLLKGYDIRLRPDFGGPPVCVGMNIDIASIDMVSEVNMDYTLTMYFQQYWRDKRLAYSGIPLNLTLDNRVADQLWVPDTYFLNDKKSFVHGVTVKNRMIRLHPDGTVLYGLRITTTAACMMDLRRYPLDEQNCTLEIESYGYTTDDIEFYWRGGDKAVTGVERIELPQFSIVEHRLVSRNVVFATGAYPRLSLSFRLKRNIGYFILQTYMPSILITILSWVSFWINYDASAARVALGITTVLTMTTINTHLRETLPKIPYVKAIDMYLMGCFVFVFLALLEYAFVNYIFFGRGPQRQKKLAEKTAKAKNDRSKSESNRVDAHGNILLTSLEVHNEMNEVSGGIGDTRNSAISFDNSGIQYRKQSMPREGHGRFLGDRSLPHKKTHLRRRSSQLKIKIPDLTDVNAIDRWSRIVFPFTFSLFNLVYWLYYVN
T1 sequence (P31644 whole entry): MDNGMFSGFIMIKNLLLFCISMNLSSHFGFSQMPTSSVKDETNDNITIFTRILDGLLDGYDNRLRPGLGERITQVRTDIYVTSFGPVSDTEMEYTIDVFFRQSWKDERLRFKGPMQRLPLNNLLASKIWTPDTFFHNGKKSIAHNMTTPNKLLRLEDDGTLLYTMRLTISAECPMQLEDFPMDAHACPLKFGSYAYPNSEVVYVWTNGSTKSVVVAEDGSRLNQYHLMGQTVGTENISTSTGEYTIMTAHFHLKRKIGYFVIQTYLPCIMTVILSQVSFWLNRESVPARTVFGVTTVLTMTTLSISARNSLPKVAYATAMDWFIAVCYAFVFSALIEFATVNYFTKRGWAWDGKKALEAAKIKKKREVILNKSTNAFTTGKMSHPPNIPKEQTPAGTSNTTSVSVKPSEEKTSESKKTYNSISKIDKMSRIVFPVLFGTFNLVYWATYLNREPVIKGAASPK
The data set is described as follows: Displacement of [3H]Ro 15-1788 from recombinant human GABA-Aalpha5 receptor plus beta-3-gamma-2 expressed in L(tk-) cells. In kind it is cell-based. In general terms: Loss of bound radioactivity is the signal in a displacement assay; it reports binding, not function.

The target in data set [2] is T2, GABA-A receptor; alpha-1/beta-3/gamma-2 (Homo sapiens, UniProt P14867+P18507+P28472).
T2 sequence (P14867 whole entry): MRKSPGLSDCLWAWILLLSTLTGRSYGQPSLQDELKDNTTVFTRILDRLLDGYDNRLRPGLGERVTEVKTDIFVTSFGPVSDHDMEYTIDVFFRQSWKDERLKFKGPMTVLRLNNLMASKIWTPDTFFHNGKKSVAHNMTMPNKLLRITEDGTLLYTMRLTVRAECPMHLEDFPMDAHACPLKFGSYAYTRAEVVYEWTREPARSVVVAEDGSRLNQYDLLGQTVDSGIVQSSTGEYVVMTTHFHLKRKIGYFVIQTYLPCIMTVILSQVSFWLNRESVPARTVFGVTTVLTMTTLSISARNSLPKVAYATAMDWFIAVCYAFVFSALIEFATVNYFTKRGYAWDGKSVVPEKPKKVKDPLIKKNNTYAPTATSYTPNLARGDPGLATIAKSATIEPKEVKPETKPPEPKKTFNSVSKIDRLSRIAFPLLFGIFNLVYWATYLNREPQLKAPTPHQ
T2 sequence (P18507 whole entry): T1 sequence (P18507 whole entry)
T2 sequence (P28472 whole entry): T1 sequence (P28472 whole entry)
The data set is described as follows: Displacement of [3H]Ro 15-1788 from recombinant human GABA-Aalpha1 receptor plus beta3gamma2 expressed in mouse L(tk-) cells. In kind it is cell-based.

In a further data set the test system is Rattus norvegicus. The data set is described as follows: Plasma clearance in Sprague-Dawley rat at 1 mg/kg, iv or 1 mg/kg, po. In kind it is organism-based.
A short description of data set [3]: Volume of distribution in Sprague-Dawley rat at 1 mg/kg, iv or 1 mg/kg, po. In kind it is ADME, organism-based. The note with it: in vivo, read-out: Vdss.
Data set [4] in a line: Half life in Beagle dog at 1 mg/kg, iv or 1 mg/kg, po. In kind it is ADME, organism-based, Canis lupus familiaris. The note with it: in vivo.

Structures are written as SMILES.

Take `CC(C)(O)c1cnn2c(-c3ccc(F)c(-c4ncc(F)cc4F)c3)cnc2n1`: the Ki came to 2.71 nM in data set [1] and 0.67 nM in data set [2]. This molecule gave a CL (mL.min-1.kg-1) with Rattus norvegicus of 1.2. In addition, the Vd in data set [3] worked out at 2.2 L/kg.
Take `CC(C)(O)c1cnn2c(-c3ccc(F)c(-c4ncccc4C#N)c3)cnc2n1`: the Ki amounted to 9.34 nM in data set [1] and 1.28 nM in data set [2]. This molecule also gave a CL (mL.min-1.kg-1) with Rattus norvegicus of 2.4. Also, the Vd in data set [3] came to 1.7 L/kg. This molecule also had a half-life in data set [4] of 9.7 h.
